The results in this text go back to publication PMC3742238, “Characterization of the Interaction between Eupatorin and Bovine Serum Albumin by Spectroscopic and Molecular Modeling Methods” (International Journal of Molecular Sciences, 2013).

SMILES strings stand for the structures.

This test addresses T1, bovine serum albumin (BSA) (Bos taurus, UniProt P02769).
T1 construct: gene ALB; BSA fraction V (Sigma), 583 amino acid residues
In words: intrinsic fluorescence quenching titration (static; Kb at […] K, pH […], n = […]), supported by UV-vis, CD and FRET. The conditions noted are these: read-out: Kb (10^6 M^-1) (converted). It is filed as binding.

T1 sequence (P02769 25-607): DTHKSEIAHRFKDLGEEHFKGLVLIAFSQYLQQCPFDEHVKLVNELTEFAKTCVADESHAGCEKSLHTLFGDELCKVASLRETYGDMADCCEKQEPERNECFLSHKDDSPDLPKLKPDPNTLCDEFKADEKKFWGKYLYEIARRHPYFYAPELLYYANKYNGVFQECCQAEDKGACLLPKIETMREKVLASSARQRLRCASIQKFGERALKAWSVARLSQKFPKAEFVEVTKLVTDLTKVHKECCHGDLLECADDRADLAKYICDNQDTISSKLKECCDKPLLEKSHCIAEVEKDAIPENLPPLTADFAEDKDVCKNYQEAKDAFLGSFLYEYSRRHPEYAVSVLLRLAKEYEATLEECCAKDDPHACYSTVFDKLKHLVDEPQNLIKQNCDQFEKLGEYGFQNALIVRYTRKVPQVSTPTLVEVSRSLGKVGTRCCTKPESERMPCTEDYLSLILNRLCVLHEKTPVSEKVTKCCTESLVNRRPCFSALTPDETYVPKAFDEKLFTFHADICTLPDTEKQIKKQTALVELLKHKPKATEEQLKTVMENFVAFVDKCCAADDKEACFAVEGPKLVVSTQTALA

As for `COc1ccc(-c2cc(=O)c3c(O)c(OC)c(OC)cc3o2)cc1O` [eupatorin], the Kd was 813 nM.
